doi:10.1101/2025.06.15.659787v1 (biorxiv, 2025)

Biological target: Mtb-SufS (Mycobacterium tuberculosis, UniProt P9WQ69)
Sequence (P9WQ69 whole entry): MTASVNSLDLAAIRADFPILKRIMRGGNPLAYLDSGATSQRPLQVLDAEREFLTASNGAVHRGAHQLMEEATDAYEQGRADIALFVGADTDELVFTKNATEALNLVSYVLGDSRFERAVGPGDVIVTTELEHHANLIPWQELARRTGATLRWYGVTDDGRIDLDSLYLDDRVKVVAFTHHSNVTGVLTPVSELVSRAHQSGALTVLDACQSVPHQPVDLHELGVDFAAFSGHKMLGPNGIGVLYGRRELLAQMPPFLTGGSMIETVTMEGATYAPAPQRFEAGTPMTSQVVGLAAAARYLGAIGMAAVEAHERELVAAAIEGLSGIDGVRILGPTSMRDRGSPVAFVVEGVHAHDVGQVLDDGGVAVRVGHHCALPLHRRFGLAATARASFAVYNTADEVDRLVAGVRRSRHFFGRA

SMILES: N[C@@H](CS)C(=O)O [L-Cys]
- GC-MS assay of L-Ala formation: Mtb-SufS shows low basal activity
